Reference: US8063053B2, “1-(arylsulfonyl)-4-(piperazin-1-yl)-1H-benzimidazoles as 5-hydroxytryptamine-6 ligands” (Wyeth LLC, priority 2008, dated 2011)
Read-outs that look alike come from different tables or passages of the source.

Target: T1, serotonin 5-HT6 receptor subtype (Homo sapiens, UniProt P50406)
T1 construct: host or cells: CHO-Dukx-A2 cells, clone 50-7
Experiment: 5-HT6 binding affinity ([3H]-LSD SPA binding)

T1 sequence (P50406 whole entry): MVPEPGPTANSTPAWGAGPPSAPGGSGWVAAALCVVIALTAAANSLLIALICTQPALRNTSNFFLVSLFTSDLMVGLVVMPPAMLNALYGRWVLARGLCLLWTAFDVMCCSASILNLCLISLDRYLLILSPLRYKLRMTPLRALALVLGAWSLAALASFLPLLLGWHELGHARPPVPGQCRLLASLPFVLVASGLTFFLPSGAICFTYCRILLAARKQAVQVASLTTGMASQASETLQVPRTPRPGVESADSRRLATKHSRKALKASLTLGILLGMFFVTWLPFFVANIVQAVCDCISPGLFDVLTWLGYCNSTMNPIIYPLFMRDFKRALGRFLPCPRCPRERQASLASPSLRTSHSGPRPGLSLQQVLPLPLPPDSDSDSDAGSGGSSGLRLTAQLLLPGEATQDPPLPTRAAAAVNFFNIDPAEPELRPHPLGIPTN

Ki (read-out: 5-HT6 binding Ki) [nM]	Compound	other results
3.17	Cc1nc2c(N3CCNC(C)C3)cccc2n1S(=O)(=O)c1ccccc1 (stereo in doubt) [Example 114, 2-methyl-4-[(3R)-3-methylpiperazin-1-yl]-1-(phenylsulfonyl)-1H-benzimidazole]	
1.12	Cc1nc2c(N3CCNC(C)C3)cccc2n1S(=O)(=O)c1cccc2ccccc12 (stereo in doubt) [Example 115, 2-methyl-4-[(3R)-3-methylpiperazin-1-yl]-1-(1-naphthylsulfonyl)-1H-benzimidazole]	
0.951	Cc1nc2c(N3CCNC(C)C3)cccc2n1S(=O)(=O)c1ccccc1 (stereo in doubt) [Example 116, 2-methyl-4-[(3S)-3-methylpiperazin-1-yl]-1-(phenylsulfonyl)-1H-benzimidazole]	
0.305	Cc1nc2c(N3CCNC(C)C3)cccc2n1S(=O)(=O)c1cccc2ccccc12 (stereo in doubt) [Example 117, 2-methyl-4-[(3S)-3-methylpiperazin-1-yl]-1-(1-naphthylsulfonyl)-1H-benzimidazole]	
0.064	CN1CCN(c2cccc3c2ncn3S(=O)(=O)c2cccc3ccccc23)CC1 [Example 1, 4-(4-methylpiperazin-1-yl)-1-(naphthalen-1-ylsulfonyl)-1H-benzo[d]imidazole]	
0.165	O=S(=O)(c1cccc2ccccc12)n1cnc2c(N3CCNCC3)cccc21 [Example 2, 1-(naphthalen-1-ylsulfonyl)-4-(piperazin-1-yl)-1H-benzo[d]imidazole]	
	O=S(=O)(c1ccccc1)n1cnc2c(N3CCNCC3)cccc21 [Example 3, 1-(phenylsulfonyl)-4-(piperazin-1-yl)-1H-benzo[d]imidazole]	Ki: 1.36 nM
0.025	Cc1nc2c(N3CCNCC3)cccc2n1S(=O)(=O)c1cccc2ccccc12 [Example 4, 2-methyl-1-(1-naphthylsulfonyl)-4-piperazin-1-yl-1H-benzimidazole]	
	Cc1nc2c(N3CCNCC3)cccc2n1S(=O)(=O)c1ccccc1 [Example 5, 2-methyl-1-(phenylsulfonyl)-4-piperazin-1-yl-1H-benzimidazole]	Ki (CHO-Dukx-A2 cells expressing 5-HT6 receptor (clone 50-7), 3 nM [3H]-LSD, PVT WGA SPA beads, Ki by Cheng-Prusoff, read-out: 5-HT6 binding Ki): 0.53 nM
0.447	CCc1nc2c(N3CCNCC3)cccc2n1S(=O)(=O)c1ccccc1 [Example 6, 2-ethyl-1-(phenylsulfonyl)-4-piperazin-1-yl-1H-benzimidazole]	
0.394	CCN1CCN(c2cccc3c2ncn3S(=O)(=O)c2ccccc2)CC1 [Example 7, 4-(4-ethylpiperazin-1-yl)-1-(phenylsulfonyl)-1H-benzimidazole]	
1.1	CCCCc1nc2c(N3CCNCC3)cccc2n1S(=O)(=O)c1ccccc1 [Example 8, 2-butyl-1-(phenylsulfonyl)-4-piperazin-1-yl-1H-benzimidazole]	
0.004	Cc1nc2c(N3CCN(C)CC3)cccc2n1S(=O)(=O)c1cccc2ccccc12 [Example 9, 2-methyl-4-(4-methylpiperazin-1-yl)-1-(1-naphthylsulfonyl)-1H-benzimidazole]	
1.32	O=S(=O)(c1ccc(Cl)cc1)n1cnc2c(N3CCNCC3)cccc21 [Example 10, 1-[(4-chlorophenyl)sulfonyl]-4-piperazin-1-yl-1H-benzimidazole]	
0.269	O=S(=O)(c1ccccc1Cl)n1cnc2c(N3CCNCC3)cccc21 [Example 11, 1-[(2-chlorophenyl)sulfonyl]-4-piperazin-1-yl-1H-benzimidazole]	
1.66	CN1CCN(c2cccc3c2ncn3S(=O)(=O)c2ccccc2)CC1 [Example 12, 4-(4-methylpiperazin-1-yl)-1-(phenylsulfonyl)-1H-benzimidazole]	
1.82	COc1ccc(S(=O)(=O)n2c(C)nc3c(N4CCNCC4)cccc32)cc1 [Example 13, 1-[(4-methoxyphenyl)sulfonyl]-2-methyl-4-piperazin-1-yl-1H-benzimidazole]	
2.3	Cc1nc2c(N3CCNCC3)cccc2n1S(=O)(=O)c1cccc(OC(F)(F)F)c1 [Example 14, 2-methyl-4-piperazin-1-yl-1-{[3-(trifluoromethoxy)phenyl]sulfonyl}-1H-benzimidazole]	
0.99	Cc1nc2c(N3CCNCC3)cccc2n1S(=O)(=O)c1ccccc1Cl [Example 15, 1-[(2-chlorophenyl)sulfonyl]-2-methyl-4-piperazin-1-yl-1H-benzimidazole]	
0.99	Cc1nc2c(N3CCNCC3)cccc2n1S(=O)(=O)c1cccc(Cl)c1 [Example 16, 1-[(3-chlorophenyl)sulfonyl]-2-methyl-4-piperazin-1-yl-1H-benzimidazole]	
6	Cc1nc2c(N3CCNCC3)cccc2n1S(=O)(=O)c1ccc(Cl)cc1 [Example 17, 1-[(4-chlorophenyl)sulfonyl]-2-methyl-4-piperazin-1-yl-1H-benzimidazole]	
1.3	Cc1cccc(S(=O)(=O)n2c(C)nc3c(N4CCNCC4)cccc32)c1 [Example 18, 2-methyl-1-[(3-methylphenyl)sulfonyl]-4-piperazin-1-yl-1H-benzimidazole]	
4.3	O=S(=O)(c1cccc(Cl)c1)n1cnc2c(N3CCNCC3)cccc21 [Example 19, 1-[(3-chlorophenyl)sulfonyl]-4-piperazin-1-yl-1H-benzimidazole]	

Ki (read-out: 5-HT6 binding Ki) [nM]	Compound	other results
25	O=S(=O)(c1ccc(F)cc1)n1cnc2c(N3CCNCC3)cccc21 [Example 20, 1-[(4-fluorophenyl)sulfonyl]-4-piperazin-1-yl-1H-benzimidazole]	
3	O=S(=O)(c1ccccc1F)n1cnc2c(N3CCNCC3)cccc21 [Example 21, 1-[(2-fluorophenyl)sulfonyl]-4-piperazin-1-yl-1H-benzimidazole]	
1.5	O=S(=O)(c1cccc(F)c1)n1cnc2c(N3CCNCC3)cccc21 [Example 22, 1-[(3-fluorophenyl)sulfonyl]-4-piperazin-1-yl-1H-benzimidazole]	
10.6	O=S(=O)(c1ccc2ccccc2c1)n1cnc2c(N3CCNCC3)cccc21 [Example 23, 1-(2-naphthylsulfonyl)-4-piperazin-1-yl-1H-benzimidazole]	
15.1	COc1ccc(S(=O)(=O)n2cnc3c(N4CCNCC4)cccc32)cc1 [Example 24, 1-[(4-methoxyphenyl)sulfonyl]-4-piperazin-1-yl-1H-benzimidazole]	
89	O=S(=O)(c1ccc(OC(F)(F)F)cc1)n1cnc2c(N3CCNCC3)cccc21 [Example 25, 4-piperazin-1-yl-1-{[4-(trifluoromethoxy)phenyl]sulfonyl}-1H-benzimidazole]	
1.7	Cc1nc2c(N3CCNCC3)cccc2n1S(=O)(=O)c1cccc(F)c1 [Example 26, 1-[(3-fluorophenyl)sulfonyl]-2-methyl-4-piperazin-1-yl-1H-benzimidazole]	
2.5	Cc1ccc(S(=O)(=O)n2cnc3c(N4CCNCC4)cccc32)cc1 [Example 27, 1-[(4-methylphenyl)sulfonyl]-4-piperazin-1-yl-1H-benzimidazole]	
1.95	O=S(=O)(c1cccc(OC(F)(F)F)c1)n1cnc2c(N3CCNCC3)cccc21 [Example 28, 4-piperazin-1-yl-1-{[3-(trifluoromethoxy)phenyl]sulfonyl}-1H-benzimidazole]	
11.7	O=S(=O)(c1ccc(F)c(Cl)c1)n1cnc2c(N3CCNCC3)cccc21 [Example 29, 1-[(3-chloro-4-fluorophenyl)sulfonyl]-4-piperazin-1-yl-1H-benzimidazole]	
15.8	Cc1nc2c(N3CCNCC3)cccc2n1S(=O)(=O)c1ccc(OC(F)(F)F)cc1 [Example 30, 2-methyl-4-piperazin-1-yl-1-{[4-(trifluoromethoxy)phenyl]sulfonyl}-1H-benzimidazole]	
0.467	Cc1ccc(S(=O)(=O)n2c(C)nc3c(N4CCNCC4)cccc32)cc1 [Example 31, 2-methyl-1-[(4-methylphenyl)sulfonyl]-4-piperazin-1-yl-1H-benzimidazole]	
2.5	Cc1nc2c(N3CCNCC3)cccc2n1S(=O)(=O)c1ccccc1F [Example 32, 1-[(2-fluorophenyl)sulfonyl]-2-methyl-4-piperazin-1-yl-1H-benzimidazole]	
0.72	O=S(=O)(c1ccccc1OC(F)(F)F)n1cnc2c(N3CCNCC3)cccc21 [Example 33, 4-piperazin-1-yl-1-{[2-(trifluoromethoxy)phenyl]sulfonyl}-1H-benzimidazole]	
1.2	COc1cccc(S(=O)(=O)n2cnc3c(N4CCNCC4)cccc32)c1 [Example 34, 1-[(3-methoxyphenyl)sulfonyl]-4-piperazin-1-yl-1H-benzimidazole]	
1.1	Cc1ccc(S(=O)(=O)n2cnc3c(N4CCNCC4)cccc32)c2ccccc12 [Example 35, 1-[(4-methyl-1-naphthyl)sulfonyl]-4-piperazin-1-yl-1H-benzimidazole]	
1.11	Cc1cccc(S(=O)(=O)n2cnc3c(N4CCNCC4)cccc32)c1 [Example 36, 1-[(3-methylphenyl)sulfonyl]-4-piperazin-1-yl-1H-benzimidazole]	
10.5	Cc1nc2c(N3CCNCC3)cccc2n1S(=O)(=O)c1ccc(F)cc1 [Example 38, 1-[(4-fluorophenyl)sulfonyl]-2-methyl-4-piperazin-1-yl-1H-benzimidazole]	
1.15	Cc1ccccc1S(=O)(=O)n1cnc2c(N3CCNCC3)cccc21 [Example 39, 1-[(2-methylphenyl)sulfonyl]-4-piperazin-1-yl-1H-benzimidazole]	
18.9	O=S(=O)(c1ccc(C(F)(F)F)cc1)n1cnc2c(N3CCNCC3)cccc21 [Example 40, 4-piperazin-1-yl-1-{[4-(trifluoromethyl)phenyl]sulfonyl}-1H-benzimidazole]	
1.06	O=S(=O)(c1ccccc1C(F)(F)F)n1cnc2c(N3CCNCC3)cccc21 [Example 41, 4-piperazin-1-yl-1-{[2-(trifluoromethyl)phenyl]sulfonyl}-1H-benzimidazole]	
1.13	O=S(=O)(c1cccc(C(F)(F)F)c1)n1cnc2c(N3CCNCC3)cccc21 [Example 42, 4-piperazin-1-yl-1-{[3-(trifluoromethyl)phenyl]sulfonyl}-1H-benzimidazole]	
1.05	Cc1nc2c(N3CCNCC3)cccc2n1S(=O)(=O)c1ccc2ccccc2c1 [Example 43, 2-methyl-1-(2-naphthylsulfonyl)-4-piperazin-1-yl-1H-benzimidazole]	
